In brackets after ≈: the same amount, converted by molar mass. Several values for one entry are separate records, joined by “and”; a condition that tells them apart may be missing. Equal values may be shown once.
Tests used:
[1] = tested on: plasmid pBR322; test: Ethidium bromide assay, DNA-binding effects on plasmid pBR322; conditions: EtBr-DNA complex, compound 10 μM, 25 °C 30 min; no drug = 100% fluorescence
[2] = tested on: MCF-7 breast cancer cell line; test: In vitro anti-proliferative MTT assay; type: cell-based, human; conditions: for IC50: Homo sapiens, MCF7, 24 h, read-out: MCF-7 IC50; for Selectivity index (SI): IC50 against normal cells (HSF) divided by IC50 against cancer cells (MCF-7)
[3] = biological target: T1, recombinant human DHFR (Homo sapiens, UniProt P00374); test: Dihydrofolate reductase; type: biochemical
T1 sequence (P00374 1-187): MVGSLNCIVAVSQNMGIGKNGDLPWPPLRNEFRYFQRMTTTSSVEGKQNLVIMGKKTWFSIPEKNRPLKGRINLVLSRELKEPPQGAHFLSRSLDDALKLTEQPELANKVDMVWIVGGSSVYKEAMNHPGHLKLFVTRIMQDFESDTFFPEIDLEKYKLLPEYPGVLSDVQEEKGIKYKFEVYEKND

[4] = tested on: poly(dG-dC)2; test: Ethidium bromide assay, DNA-binding effects on poly; conditions: EtBr-DNA complex, compound 10 μM, 25 °C 30 min
[5] = tested on: poly(dA-dT)2; test: as above; conditions: EtBr-DNA complex, compound 10 μM, 25 °C 30 min
[6] = tested on: MCF-7 cells; test: Wound healing assay; type: cell-based, human; conditions: MCF-7, at IC50 concentrations
[7] = tested on: MCF-7 cells; test: Apoptosis induction, Annexin V-FITC/PI flow cytometry; type: cell-based, human; conditions: MCF-7, at IC50, 24 h
[8] = tested on: normal human skin fibroblasts (HSF); test: Normal cytotoxicity evaluation, MTT; type: cell-based; conditions: Skin fibroblast, 24 h, read-out: Normal HSF IC50
[9] = tested on: T4 coliphage DNA; test: Ethidium bromide assay, DNA-binding effects on T4 coliphage DNA; conditions: EtBr-DNA complex, compound 10 μM, 25 °C 30 min
[10] = tested on: calf thymus DNA; test: Ethidium bromide assay, DNA-binding effects on calf thymus DNA; conditions: EtBr-DNA complex, compound 10 μM, 25 °C 30 min
[11] = tested on: plasmid pBR322; conditions: NT under the same conditions; cited from earlier work

SMILES | Decrease in fluorescence (%) pBr322 [1] [%] | IC50 [2] [µg/mL] | IC50 [3] [µM] | Decrease in fluorescence (%) Poly (dG-dC)2 [4] | Decrease in fluorescence (%) Poly (dA-dT)2 [5] [%] | Selectivity index (SI) [2] | % Wound closure after 24 h treatment [6] [%] | Percentage of necrosis [7] [%] | Percentage of total apoptosis [7] [%] | IC50 [8] [µg/mL] | Decrease in fluorescence (%) T4 DNA [9] [%] | Decrease in fluorescence (%) Calf Thymus DNA [10] [%] | Decrease in fluorescence (%) pBr322 (degree of EtBr displacement) [11] [%]
COc1ccc(-c2csc(N/N=C(/C=C/c3ccc(Cl)cc3)C(=O)O)n2)cc1 [Compound 7, (2Z,3E)-4-(4-Chlorophenyl)-2-(2-(4-(4-methoxyphenyl)thiazol-2-yl)hydrazinylidene)but-3-enoic acid] | 62.36 | – | 39.41 ± 0.03 | 62.38% | – | – | – | – | – | – | 36.58 | 44.21 | –
O=C(O)C(/C=C/c1ccc(Cl)cc1)=N\Nc1nc(-c2ccc(F)cc2)cs1 [Compound 8, (2Z,3E)-4-(4-Chlorophenyl)-2-(2-(4-(4-fluorophenyl)thiazol-2-yl)hydrazinylidene)but-3-enoic acid] | 60.93 | – | 10.51 ± 0.05 | 62.99% | 52.83 | – | – | – | – | – | 37.19 | 40.00 | –
O=C(O)C(/C=C/c1ccc(Cl)cc1)=N\Nc1nc(-c2ccc([N+](=O)[O-])cc2)cs1 [Compound 11, (2Z,3E)-4-(4-Chlorophenyl)-2-(2-(4-(4-nitrophenyl)thiazol-2-yl)hydrazinylidene)but-3-enoic acid] | 56.21 | 12.5 (≈ 29.2 µM) | 0.06 ± 0.03 | 56.57% | 53.39 | 6.74 | 52.72 | 4.81 | 23.99 | 84.4 (≈ 197 µM) | 28.89 | 46.31 | –
COc1cccc2c1C(=O)c1c(O)c3c(c(O)c1C2=O)C[C@@](O)(C(=O)CO)C[C@@H]3O[C@H]1C[C@H](N)[C@H](O)[C@H](C)O1 [DOX, doxorubicin, reference compound] | 100 | – | 8.31 ± 0.06 | – | – | – | – | – | – | – | – | – | –
CN(Cc1cnc2nc(N)nc(N)c2n1)c1ccc(C(=O)N[C@@H](CCC(=O)O)C(=O)O)cc1 [MTX, Methotrexate, reference compound] | 100 | 56.9 (≈ 125 µM) | – | – | – | – | 45.46 | 6.50 | – | 126 (≈ 276 µM) | – | – | –
Cn1cc(NC(=O)c2cc(NC(=O)CN=C(N)N)cn2C)cc1C(=O)NCCC(=N)N [NT, netropsin, reference compound] | – | – | – | 85% and 85.13% | 62.02 | – | – | – | – | – | 70.06 | 90.24 | 74
COc1cc(Cc2cnc(N)nc2N)cc(OC)c1OC [TMP, trimethoprim, reference compound] | 100 | – | – | – | – | – | – | – | – | – | – | – | –

The next lines start with results.

Decrease in fluorescence (%) pBr322 [1] [%] | IC50 [2] [µg/mL] | IC50 [3] [µM] | Decrease in fluorescence (%) Poly (dG-dC)2 [4] | Decrease in fluorescence (%) Poly (dA-dT)2 [5] [%] | SMILES | Selectivity index (SI) [2] | % Wound closure after 24 h treatment [6] [%] | Percentage of necrosis [7] [%] | Percentage of total apoptosis [7] [%] | IC50 [8] [µg/mL] | Decrease in fluorescence (%) T4 DNA [9] [%] | Decrease in fluorescence (%) Calf Thymus DNA [10] [%] | Decrease in fluorescence (%) pBr322 (degree of EtBr displacement) [11] [%]
63.44 | 2.72 (≈ 7.09 µM) | 0.08 ± 0.001 | 67.28% | 56.91 | O=C(O)C(/C=C/c1ccc(Cl)cc1)=N\Nc1nc(-c2ccccc2)cs1 [Compound 5, (2Z,3E)-4-(4-Chlorophenyl)-2-(2–(4-phenylthiazol-2-yl)hydrazinylidene)but-3-enoic acid] | 11.97 | 45.19 | 3.09 | 29.63 | 32.6 (≈ 84.8 µM) | 28.05 | 63.15 | –
53.40 | – | 36.18 ± 0.01 | 49.23% | 71.19 | O=C(O)C(/C=C/c1ccc(Cl)cc1)=N\Nc1nc(-c2ccc(Cl)cc2)cs1 [Compound 9, (2Z,3E)-4-(4-Chlorophenyl)-2-(2-(4-(4-chlorophenyl)thiazol-2-yl)hydrazinylidene)but-3-enoic acid] | – | – | – | – | – | 50.00 | 53.68 | –
53.76 | – | 58.29 ± 0.02 | 50.15% | 39.34 | O=C(O)C(/C=C/c1ccc(Cl)cc1)=N\Nc1nc(-c2ccc(Br)cc2)cs1 [Compound 10, (2Z,3E)-4-(4-Chlorophenyl)-2-(2-(4-(4-bromophenyl)thiazol-2-yl)hydrazinylidene)but-3-enoic acid] | – | – | – | – | – | 32.32 | 30.53 | –
54.84 | – | 21.06 ± 0.02 | 59.37% | 54.80 | O=C(O)C(/C=C/c1c(Cl)cccc1Cl)=N\Nc1nc(-c2ccccc2)cs1 [Compound 12, (2Z,3E)-4-(2,6-dichlorophenyl)-2-(2-(4-phenylthiazol-2-yl)hydrazinylidene)but-3-enoic acid] | – | – | – | – | – | 48.17 | 60.53 | –
62.01 | – | 18.06 ± 0.03 | 75.62% | 55.74 | Cc1ccc(-c2csc(N/N=C(/C=C/c3c(Cl)cccc3Cl)C(=O)O)n2)cc1 [Compound 13, (2Z,3E)-4-(2,6-dichlorophenyl)-2-(2-(4-(4-tolyl)thiazol-2-yl)hydrazinylidene)but-3-enoic acid] | – | – | – | – | – | 51.22 | 67.71 | –
51.61 | – | 31.02 ± 0.04 | 61.25% | 67.21 | COc1ccc(-c2csc(N/N=C(/C=C/c3c(Cl)cccc3Cl)C(=O)O)n2)cc1 [Compound 14, (2Z,3E)-4-(2,6-dichlorophenyl)-2-(2-(4-(4-methoxyphenyl)thiazol-2-yl)hydrazinylidene)but-3-enoic acid] | – | – | – | – | – | 40.85 | 58.95 | –
70.97 | – | 62.31 ± 0.02 | 57.81% | 55.27 | O=C(O)C(/C=C/c1c(Cl)cccc1Cl)=N\Nc1nc(-c2ccc(F)cc2)cs1 [Compound 15, (2Z,3E)-4-(2,6-dichlorophenyl)-2-(2-(4-(4-fluorophenyl)thiazol-2-yl)hydrazinylidene)but-3-enoic acid] | – | – | – | – | – | 39.02 | 72.10 | –
64.16 | – | 53.18 ± 0.01 | 63.12% | 51.29 | O=C(O)C(/C=C/c1c(Cl)cccc1Cl)=N\Nc1nc(-c2ccc(Cl)cc2)cs1 [Compound 16, (2Z,3E)-4-(2,6-dichlorophenyl)-2-(2-(4-(4-chlorophenyl)thiazol-2-yl)hydrazinylidene)but-3-enoic acid] | – | – | – | – | – | 52.44 | 50.53 | –
61.65 | – | 60.28 ± 0.02 | 63.44% | 42.62 | O=C(O)C(/C=C/c1c(Cl)cccc1Cl)=N\Nc1nc(-c2ccc(Br)cc2)cs1 [Compound 17, (2Z,3E)-4-(2,6-dichlorophenyl)-2-(2-(4-(4-bromophenyl)thiazol-2-yl)hydrazinylidene)but-3-enoic acid] | – | – | – | – | – | 35.36 | 54.21 | –
55.56 | – | 63.18 ± 0.01 | 62.50% | 37.00 | O=C(O)C(/C=C/c1c(Cl)cccc1Cl)=N\Nc1nc(-c2ccc([N+](=O)[O-])cc2)cs1 [Compound 18, (2Z,3E)-4-(2,6-dichlorophenyl)-2-(2-(4-(4-nitrophenyl)thiazol-2-yl)hydrazinylidene)but-3-enoic acid] | – | – | – | – | – | 45.12 | 76.84 | –
